Assay results reported in patent publication US11872196B2, “Use of cannabidiol in treatment of pulmonary hypertension” (DEYI PHARMARMACEUTICAL LTD., priority 2017, dated 2024).

Legend:
[1] = tested on: C57BL/6 mice with pulmonary arterial hypertension caused by hypoxia; assay: Right ventricular systolic pressure (RVSP) in mice with pulmonary arterial hypertension caused by hypoxia; type: in vivo, mouse; details: day 15 to 21 of continuous hypoxia, detection on day 21, hypoxia model control 25.55±2.29, normoxia 17.54±1.48, mean±standard error
Description: Healthy and lively C57BL/6 mice at the age of 4-6 weeks, with glossy hair colors, and body weights of (25.15±2.15) g (Laboratory Animal Center of Academy of Military Medical Sciences, SPF grade). The mice were divided into four groups: • Group 1 (wild-type normoxia, used as a control group): 10 female mice and 10 male mice under normoxia conditions; • Group 2 (wild-type hypoxia, used as a control group): 10 female mice and 10 male mice under hypoxia conditions; • Group 3 (10 mg/kg, used as an experimental group): 10 female mice and 10 male mice were treated with 10 mg/kg by gavage under hypoxia conditions; • Group 4 (50 mg/kg, used as an experimental group): 10 female mice and 10 male mice were treated with 50 mg/kg by gavage under hypoxia conditions. […]
On day 21, the mice were anesthetized by intraperitoneal injection of sodium pentobarbital (35 mg/kg), and the right ventricular systolic pressure was measured by using a catheter matched with a physiological instrument with reference to the right-heart catheterization reported by Song et al. (Song, Y., Jones, J. E., Beppu, H., Keaney, J. F., Jr., Loscalzo, J., and Zhang, Y. Y. (2005). Increased susceptibility to pulmonary hypertension in heterozygous BMPR2-mutant mice. Circulation 112, 553-562). […] After the catheter entered the right ventricle, RVSP was determined and recorded.

[2] = tested on: C57BL/6 mice with pulmonary arterial hypertension caused by hypoxia; assay: Right ventricular hypertrophy (RVH) index RV/(LV+S) in hypoxia PAH mice; type: in vivo, mouse; details: 7 days, model group 32.62±1.41, normoxia 25.99±1.17, mean±standard error
Description: (§1) Healthy and lively C57BL/6 mice at the age of 4-6 weeks, with glossy hair colors, and body weights of (25.15±2.15) g (Laboratory Animal Center of Academy of Military Medical Sciences, SPF grade). The mice were divided into four groups: • Group 1 (wild-type normoxia, used as a control group): 10 female mice and 10 male mice under normoxia conditions; • Group 2 (wild-type hypoxia, used as a control group): 10 female mice and 10 male mice under hypoxia conditions; • Group 3 (10 mg/kg, used as an experimental group): 10 female mice and 10 male mice were treated with 10 mg/kg by gavage under hypoxia conditions; • Group 4 (50 mg/kg, used as an experimental group): 10 female mice and 10 male mice were treated with 50 mg/kg by gavage under hypoxia conditions.
The mice of groups 2-4 were placed in an animal feeding chamber under normal pressure and hypoxia, the oxygen concentration in the chamber was maintained at 9%-11%, and the temperature in the chamber was maintained at 22-26° C. The mice of group 1 inhaled normal atmosphere air, and the other conditions were the same as those for mice of groups 2-4. […]

[3] = tested on: C57BL/6 mice with pulmonary arterial hypertension caused by hypoxia; assay: Pathological changes of pulmonary arterioles (HE and elastic fiber staining, vascular remodeling rate) in hypoxia PAH mice; type: in vivo, mouse
Description: as §1
The mice of groups 2-4 were placed in an animal feeding chamber under normal pressure and hypoxia, the oxygen concentration in the chamber was maintained at 9%-11%, and the temperature in the chamber was maintained at 22-26° C. The mice of group 1 inhaled normal atmosphere air, and the other conditions were the same as those for mice of groups 2-4.
In order to explore whether CBD has a therapeutic effect on pulmonary arterial hypertension or not, the inventor first treated mice for 14 days in a continuous hypoxia environment to establish a model of pulmonary arterial hypertension (the groups 2-4), and then administration was started from day 15 to day 21 through gavage once a day, the mice were treated every day for 7 days (the group 3-4), and detection was performed on day 21.
Sample: paraffin sections of mouse lung tissue.
Objective: observing the pathology of lung tissues to detect whether there is a vascular wall thickening phenomenon or not.

TNF-α = assay: LPS-induced primary alveolar macrophages, TNF-α expression by fluorescence quantitative PCR; type: cell-based, mouse; details: 0.5, 1, 5 μM CBD pre-treatment 0.5 h, then 100 ng/mL LPS, 5 h; dose-dependent
Source text: (§2) Primary alveolar macrophages were isolated according to the method by Yang et al. (Yang, H. M., Ma, J. Y., Castranova, V., and Ma, J. K. (1997). Effects of diesel exhaust particles on the release of interleukin-1 and tumor necrosis factor-alpha from rat alveolar macrophages. Experimental lung research 23, 269-284): two-month-old mice were taken and injected intraperitoneally with pentobarbital to be anesthetized. The mice were fixed at a supine position, and disinfected at the neck, and the neck skin was cut open to strip gland muscles and expose the trachea. A small opening was cut in an upper part of the trachea without cutting off. A small white pipette tip was inserted onto a 1 ml pipette to pipette 1 ml PBS at 4° C. (free of Ca^2+, free of Mg^2+, […]) [50 ml PBS+0.00876 g EDTA] into the lung from the opening, and then pipetted out from the opening after blowing in. Then fresh PBS was taken and pipetted into and out from the opening repeatedly for 3-4 times. The collected alveolar irrigation solution was centrifuged at 200×g for 5 minutes, and the supernatant was discarded. The cells were washed once with a serum-free RPMI-1640 culture medium and centrifuged at 200×g for 5 minutes. The cells were resuspended by adding a serum-containing RPMI-1640 and then inoculated. The cells were subjected to adherence for 2 h, and then washed for three times with PBS. […]

IL-6 = assay: LPS-induced primary alveolar macrophages, IL-6 expression by fluorescence quantitative PCR; type: cell-based, mouse; details: 0.5, 1, 5 μM CBD pre-treatment 0.5 h, then 100 ng/mL LPS, 5 h; dose-dependent
Source text: as §2

MgI2 = assay: LPS-induced primary alveolar macrophages, MgI2 expression by fluorescence quantitative PCR; type: cell-based, mouse; details: 0.5, 1, 5 μM CBD pre-treatment 0.5 h, then 100 ng/mL LPS, 5 h
Source text: as §2

[4] = after CBD treatment (10 and 50 mg/kg by gavage) versus hypoxia model group
[5] = both dose groups (10 and 50 mg/kg)

Q: For `C=C(C)[C@@H]1CCC(C)=C[C@H]1c1c(O)cc(CCCCC)cc1O` [CBD, Cannabidiol], which “mean right ventricular systolic pressure” value ([1]; 10 mg/kg by gavage once a day) is on record?
A: Its value is 16.90±2.31 mmHg.

Q: And the “mean right ventricular systolic pressure” value ([1]; 50 mg/kg by gavage once a day)?
A: The value was 17.92±2.37 mmHg.

Q: And the “right ventricular hypertrophy index (right heart index)” value ([2]; 10 mg/kg by gavage)?
A: Its value is 30.18±1.01%.

Q: And the “right ventricular hypertrophy index (right heart index)” value ([2]; 50 mg/kg by gavage)?
A: The value was 29.90±1.19%.

Q: What about the pulmonary arteriole remodeling [3, 4] of the same compound?
A: The pulmonary arteriole remodeling was “significantly reduced”.

Q: What about the vascular remodeling rate [3, 4] of the same compound?
A: Its vascular remodeling rate is “significantly reduced”.

Q: And the “arterial medial wall thickness ratio” value [3, 5]?
A: The value was “reduction”.

Q: And the “vascular wall medial cross-sectional area ratio” value [3, 5]?
A: Its value is “reduction”.

Q: What about the “expression of LPS-induced TNF-α” value (TNF-α) of the same compound?
A: The value was “significantly inhibit”.

Q: What about the “expression of LPS-induced IL-6” value (IL-6) of the same compound?
A: Its value is “significantly inhibit”.

Q: And the “expression of MgI2, a gene that inhibited inflammation” value (MgI2)?
A: Its value is “promote”.
